The values that follow come from PubChem BioAssay AID228 (DTP/NCI, 2004).

Values joined by “and” are separate entries in the source; they are usually repeats but may differ in a detail not shown here. Equal values may be shown once. Inconclusive results are not listed.

The test system of this experiment is BDF1 mice, Friend leukemia sc, tumor weight T/C. Nature of the experiment: NCI In Vivo Anticancer Drug Screen. Data for tumor model Friend Virus Leukemia (Solid) (subcutaneous) in B6D2F1 (BDF1) mice. The following applies: endpoint: mean tumor weight, higher = larger tumour. Here is the method: The antitumor activity of compounds was measured in mice bearing transplantable tumors. Survival or tumor size were measured and the results are expressed as the measurement made in the treated group (T) divided by the measurement made in the vehicle treated control group (C). The tumor model used in this assay is Friend Virus Leukemia (Solid) (subcutaneous) in B6D2F1 (BDF1) mice

[1] abbreviates: dose: 6.0 mg/kg/injection, schedule: Q01DX011 (ip), vehicle: carboxymethylcellulose (CMC).
[2] abbreviates: dose: 6.25 mg/kg/injection, schedule: Q01DX011 (ip), vehicle: carboxymethylcellulose (CMC).
[3] abbreviates: dose: 12.5 mg/kg/injection, schedule: Q01DX011 (ip), vehicle: carboxymethylcellulose (CMC).
Setting [4] is: dose: 50.0 mg/kg/injection, schedule: Q01DX011 (ip), vehicle: carboxymethylcellulose (CMC).

As to `CCN(CC)CCNc1ccc(C)c2sc3ccccc3c(=O)c12`, the T/C is 184 % of control (dose: 1.0 mg/kg/injection, schedule: Q01DX011 (ip), vehicle: carboxymethylcellulose (CMC)); 199 % of control under setting [1]; 37 % of control under setting [2]; 174 % of control (dose: 8.0 mg/kg/injection, schedule: Q01DX011 (ip), vehicle: carboxymethylcellulose (CMC)); 199 % of control (dose: 8.1 mg/kg/injection, schedule: Q01DX011 (ip), vehicle: carboxymethylcellulose (CMC)); 35 % of control under setting [3]. For the same compound, the T/C by setting is: (dose: 16.0 mg/kg/injection, schedule: Q01DX011 (ip), vehicle: carboxymethylcellulose (CMC)) 274 % of control; (dose: 16.2 mg/kg/injection, schedule: Q01DX011 (ip), vehicle: carboxymethylcellulose (CMC)) 179 % of control; (dose: 26.0 mg/kg/injection, schedule: Q01DX011 (ip), vehicle: carboxymethylcellulose (CMC)) 111 % of control; (dose: 32.0 mg/kg/injection, schedule: Q01DX011 (ip), vehicle: carboxymethylcellulose (CMC)) 66 % of control; (dose: 33.0 mg/kg/injection, schedule: Q01DX011 (ip), vehicle: carboxymethylcellulose (CMC)) 69 % of control; (dose: 43.0 mg/kg/injection, schedule: Q01DX011 (ip), vehicle: carboxymethylcellulose (CMC)) 72 % of control. Moreover, the T/C runs as follows: under setting [4], 31 % of control and 32 % of control; (dose: 75.0 mg/kg/injection, schedule: Q01DX011 (ip), vehicle: carboxymethylcellulose (CMC)) 3 % of control and 7 % of control.
For the compound `CC(C)=CC1C(C(=O)OCc2ccc(C)cc2C)C1(C)C` (centres undefined), the T/C (dose: 87.5 mg/kg/injection, schedule: Q01DX011 (ip), vehicle: carboxymethylcellulose (CMC)) is 107 % of control; the T/C (dose: 175.0 mg/kg/injection, schedule: Q01DX011 (ip), vehicle: carboxymethylcellulose (CMC)) was 83 % of control; the T/C (dose: 350.0 mg/kg/injection, schedule: Q01DX011 (ip), vehicle: carboxymethylcellulose (CMC)) is 53 % of control; the T/C (dose: 500.0 mg/kg/injection, schedule: Q01DX011 (ip), vehicle: carboxymethylcellulose (CMC)) was 46 % of control.
As to `CC1(C)N=C(N)N=C(N)N1c1cccc(Br)c1`, the T/C (dose: 25.0 mg/kg/injection, schedule: Q01DX011 (ip), vehicle: carboxymethylcellulose (CMC)) was 88 % of control.
Turning to `O=c1[nH]cc(N(CCCl)CCCl)c(=O)[nH]1`, the T/C runs as follows: (dose: 0.21 mg/kg/injection, schedule: Q01DX011 (ip), vehicle: carboxymethylcellulose (CMC)) 87 % of control; (dose: 0.42 mg/kg/injection, schedule: Q01DX011 (ip), vehicle: carboxymethylcellulose (CMC)) 99 % of control; (dose: 0.42 mg/kg/injection, schedule: Q01DX011 (ip), vehicle: saline) 53 % of control; (dose: 0.85 mg/kg/injection, schedule: Q01DX011 (ip), vehicle: carboxymethylcellulose (CMC)) 36 % of control; (dose: 0.85 mg/kg/injection, schedule: Q01DX011 (ip), vehicle: saline) 47 % of control; (dose: 1.3 mg/kg/injection, schedule: Q01DX011 (ip), vehicle: saline) 20 % of control. The T/C (dose: 1.7 mg/kg/injection, schedule: Q01DX011 (ip), vehicle: saline) is 13 % of control.
For the compound `c1ncc2[nH]cnc2n1`, the T/C reads like this: (dose: 27.5 mg/kg/injection, schedule: Q01DX011 (ip), vehicle: carboxymethylcellulose (CMC)) 104 % of control; (dose: 55.0 mg/kg/injection, schedule: Q01DX011 (ip), vehicle: carboxymethylcellulose (CMC)) 87 % of control; (dose: 110.0 mg/kg/injection, schedule: Q01DX011 (ip), vehicle: carboxymethylcellulose (CMC)) 81 % of control; (dose: 219.0 mg/kg/injection, schedule: Q01DX011 (ip), vehicle: carboxymethylcellulose (CMC)) 43 % of control.
Turning to `O=P1(N(CCCl)CCCl)NCCCO1` (centres undefined), the T/C was 183 % of control (dose: 0.5 mg/kg/injection, schedule: Q01DX015 (ip), vehicle: saline); 209 % of control (dose: 1.0 mg/kg/injection, schedule: Q01DX015 (ip), vehicle: saline); 93 % of control (dose: 1.5 mg/kg/injection, schedule: Q01DX011 (ip), vehicle: carboxymethylcellulose (CMC)); 224 % of control (dose: 2.0 mg/kg/injection, schedule: Q01DX015 (ip), vehicle: saline); 81 % of control (dose: 3.0 mg/kg/injection, schedule: Q01DX011 (ip), vehicle: carboxymethylcellulose (CMC)); 224 % of control (dose: 3.0 mg/kg/injection, schedule: Q01DX015 (ip), vehicle: saline). The T/C was 225 % of control (dose: 4.0 mg/kg/injection, schedule: Q01DX015 (ip), vehicle: saline); 89 % of control under setting [1]; 117 % of control (dose: 6.2 mg/kg/injection, schedule: Q01DX011 (ip), vehicle: saline); 28 % of control under setting [2]; 105 % of control (dose: 7.12 mg/kg/injection, schedule: Q01DX011 (ip), vehicle: saline); 101 % of control (dose: 8.0 mg/kg/injection, schedule: Q01DX011 (ip), vehicle: saline). Besides, the T/C is, setting by setting: (dose: 12.0 mg/kg/injection, schedule: Q01DX011 (ip), vehicle: saline) 58 % of control; under setting [3], 37 % of control; (dose: 12.5 mg/kg/injection, schedule: Q01DX011 (ip), vehicle: saline) 64 % of control; (dose: 14.25 mg/kg/injection, schedule: Q01DX011 (ip), vehicle: saline) 52 % of control; (dose: 23.0 mg/kg/injection, schedule: Q01DX011 (ip), vehicle: saline) 14 % of control; (dose: 25.0 mg/kg/injection, schedule: Q01DX011 (ip), vehicle: saline) 14 % of control. Further, the T/C runs as follows: (dose: 28.5 mg/kg/injection, schedule: Q01DX011 (ip), vehicle: saline) 32 % of control; (dose: 29.0 mg/kg/injection, schedule: Q01DX011 (ip), vehicle: saline) 6 % of control; under setting [4], 7 % of control and 10 % of control and 11 % of control.
In the case of `NC(N)=N/N=C/C=N/N=C(N)N`, the T/C (dose: 50.0 mg/kg/injection, schedule: Q01DX011 (ip), vehicle: saline) was 189 % of control.
Turning to `Nc1nc2n[nH]nc2c(=O)[nH]1`, the T/C is 158 % of control (dose: 11.12 mg/kg/injection, schedule: Q01DX011 (ip), vehicle: carboxymethylcellulose (CMC)); 190 % of control (dose: 11.8 mg/kg/injection, schedule: Q01DX011 (ip), vehicle: other); 189 % of control (dose: 22.7 mg/kg/injection, schedule: Q01DX011 (ip), vehicle: other); 152 % of control (dose: 45.5 mg/kg/injection, schedule: Q01DX011 (ip), vehicle: other); 44 % of control (dose: 89.0 mg/kg/injection, schedule: Q01DX011 (ip), vehicle: carboxymethylcellulose (CMC)); 123 % of control (dose: 89.0 mg/kg/injection, schedule: Q01DX011 (ip), vehicle: other).
Turning to `CN(C)C(=S)N=Nc1c(O)[nH]c2ccccc12`, the T/C by setting is: (dose: 15.0 mg/kg/injection, schedule: Q01DX011 (ip), vehicle: saline) 76 % of control; (dose: 30.0 mg/kg/injection, schedule: Q01DX011 (ip), vehicle: saline) 105 % of control; (dose: 60.0 mg/kg/injection, schedule: Q01DX011 (ip), vehicle: saline) 85 % of control; (dose: 120.0 mg/kg/injection, schedule: Q01DX011 (ip), vehicle: saline) 54 % of control.
`CC(/C=N\N=C(N)N)=N/N=C(N)N`: the T/C reads like this: (dose: 5.7 mg/kg/injection, schedule: Q01DX011 (ip), vehicle: carboxymethylcellulose (CMC)) 111 % of control; (dose: 11.5 mg/kg/injection, schedule: Q01DX011 (ip), vehicle: carboxymethylcellulose (CMC)) 70 % of control; (dose: 23.0 mg/kg/injection, schedule: Q01DX011 (ip), vehicle: carboxymethylcellulose (CMC)) 96 % of control.
For the compound `CCCCSc1ncnc2nc[nH]c12`, the T/C runs as follows: (dose: 16.0 mg/kg/injection, schedule: Q01DX011 (ip), vehicle: saline) 101 % of control; (dose: 31.0 mg/kg/injection, schedule: Q01DX011 (ip), vehicle: saline) 121 % of control; (dose: 62.0 mg/kg/injection, schedule: Q01DX011 (ip), vehicle: saline) 99 % of control; (dose: 125.0 mg/kg/injection, schedule: Q01DX011 (ip), vehicle: saline) 62 % of control.
